Source: patent US11377441B2, “Covalent inhibitors of KRAS” (Araxes Pharma LLC, priority 2017, dated 2022)

The molecules below were run against T1, KRAS G12C 1-169, his-tagged protein, GDP-loaded (Homo sapiens, UniProt P01116, G12C) (assay: Biochemical assay: covalent modification of KRAS G12C measured by mass spectrometry (RapidFire/TOF or Q-Exactive)). Conditions: covalent binding to (modification of) KRAS G12C after a ten minute incubation period.
T1 construct: KRAS G12C 1-169, his-tagged protein, GDP-loaded
Format: binding
Experimental: Test compounds were prepared as 10 mM stock solutions in DMSO (Fisher cat #BP-231-100). KRAS G12C 1-169, his-tagged protein, GDP-loaded is diluted to 2 μM or 0.5 μM in buffer (20 mM Hepes, 150 mM NaCl, 1 mM MgCl2). Compounds were tested for activity as follows:
Compounds were diluted to 50× final test concentration in DMSO in 96-well storage plates. Compound stock solutions were vortexed before use and observed carefully for any sign of precipitation. Dilutions are as follow: • For 100 μM final compound concentration, compounds were diluted to 5000 μM (5 μL 10 mM compound stock+5 μL DMSO and mixed well by pipetting. • For 30 μM final compound concentration, compounds were diluted to 1500 μM (3 μL 10 mM compound stock+17 μL DMSO) and mixed well by pipetting. • For 10 μM final compound concentration, compounds were diluted to 500 μM (2 μL 10 mM compound stock+38 μL DMSO) and mixed well by pipetting. 49 μL of the stock protein solution was added to each well of a 96-well PCR plate (Fisher cat #1423027). 1 μL of the diluted 50× compounds were added to appropriate wells in the PCR plate using 12-channel pipettor. Reactions were mixed carefully and thoroughly by pipetting up/down with a 200 μL multi-channel pipettor. The plate was sealed well with aluminum plate seal, and stored in drawer at room temperature for 10 minutes, 30 minutes, 2 hours or 24 hours. 5 μL of 2% formic acid (Fisher cat #A117) in de-ionized H2O was then added to each well followed by mixing with a pipette. The plate was then resealed with aluminum seal and stored on dry ice until analyzed as described below.
The above described assays were analyzed by mass spectrometry according to one of the following two procedures:
The MS instrument was set to positive polarity, 2 GHz resolution, and low mass (1700) mode and allowed to equilibrate for 30 minutes. The instrument was then calibrated, switched to acquisition mode and the appropriate method loaded.
After another 30 minute equilibration time, a blank batch (i.e., buffer) was run to ensure equipment is operating properly. The samples were thawed at 37° C. for 10 minutes, briefly centrifuged, and transfer to the bench top. Wells A1 and H12 were spiked with 1 μL 500 μM internal standard peptide, and the plates centrifuged at 2000×g for 5 minutes. The method was then run and masses of each individual well recorded.
The masses (for which integration data is desired) for each well were pasted into the platemap and exported from the analysis. Masses for the internal standards were exported as well. The data at 50 ppm was extracted for the +19 charge state, and identity of well A1 was assigned using the internal standard spike and integrated. Peak data was exported as a TOF list and the above steps were repeated individually, for the +20, 21, 22, 23, 24, and 25 charge states.
The masses and peak intensities of KRAS G12C protein species were measured using a Dionex RSLCnano system (Thermo Scientific) connected to a Q Exactive Plus mass spectrometer (Thermo Scientific).
[…] of sample was each loaded onto a Aeris™ 3.6 μm WIDEPORE C4 200 Å, LC Column 50×2.1 mm column maintained at 40° C. at a flow rate of 600 μL/min with 20% Solvent A (0.1% formic acid in H2O) and […] (0.1% formic acid in acetonitrile). The liquid chromatography conditions were 20% solvent B for 1 minute, 20% to 60% solvent B for 1.5 minutes, 60% to 90% solvent for 0.5 minute, 90% solvent B for 0.2 minute, 90% to 20% solvent B for 0.2 minute, and then equilibrated for 1.6 minutes before the following sample injection. The flow rate was maintained at 600 μL/min throughout the sample analysis.
The mass spectrometer was operated in profile mode at a resolution of 17500, 5 microscans, using 50 msec max injection time and an AGC target of 1×10^6, and a full mass range from 800-1850 m/z was recorded. The HCD trapping gas was optimized for maximum sensitivity for intact proteins. […]

Structure (SMILES)	Binding %
C=CC(=O)N1C[C@H](C)N(c2nc(N3CC(N(C)C)C3)nc3c(F)c(-c4c(C)ccc5nn(C)cc45)c(Cl)cc23)C[C@H]1C (atropisomer, axis not shown) [Compound 88, 1-((2R,5S)-4-((R)-6-chloro-7-(2,5-dimethyl-2H-indazol-4-yl)-2-(3-(dimethylamino)azetidin-1-yl)-8-fluoroquinazolin-4-yl)-2,5-dimethylpiperazin-1-yl)prop-2-en-1-one]	++ (++ indicates binding activity from 50 to 80%)
C=CC(=O)N1C[C@H](C)N(c2nc(N3CC(N(C)C)C3)nc3c(F)c(-c4c(C)ccc5[nH]nc(N)c45)c(Cl)cc23)C[C@H]1C (atropisomer, axis not shown) [Compound 89, 1-((2R,5S)-4-((R)-7-(3-amino-5-methyl-1H-indazol-4-yl)-6-chloro-2-(3-(dimethylamino)azetidin-1-yl)-8-fluoroquinazolin-4-yl)-2,5-dimethylpiperazin-1-yl)prop-2-en-1-one]	+++ (+++ indicates binding activity greater than 80%)
C=CC(=O)N1C[C@H](C)N(c2nc(N3CC(N(C)C)C3)nc3c(F)c(-c4c(C)ccc5[nH]nc(N)c45)c(Cl)cc23)C[C@H]1C (atropisomer, axis not shown) [Compound 90, 1-((2R,5S)-4-((S)-7-(3-amino-5-methyl-1H-indazol-4-yl)-6-chloro-2-(3-(dimethylamino)azetidin-1-yl)-8-fluoroquinazolin-4-yl)-2,5-dimethylpiperazin-1-yl)prop-2-en-1-one]	+ (+ indicates binding activity greater than 0% and up to 50%)
C=CC(=O)N1C[C@H](C)N(c2nc(N3CC(N(C)C)C3)nc3c(F)c(-c4c(C)ccc5onc(N)c45)c(Cl)cc23)C[C@H]1C (atropisomer, axis not shown) [Compound 96, 1-((2R,5S)-4-((S)-7-(3-amino-5-methylbenzo[d]isoxazol-4-yl)-6-chloro-2-(3-(dimethylamino)azetidin-1-yl)-8-fluoroquinazolin-4-yl)-2,5-dimethylpiperazin-1-yl)prop-2-en-1-one]	+ (+ indicates binding activity greater than 0% and up to 50%)
C=CC(=O)N1C[C@H](C)N(c2nc(N3CC(N(C)C)C3)nc3c(F)c(-c4c(C)ccc5[nH]nc(C)c45)c(Cl)cc23)C[C@H]1C (atropisomer, axis not shown) [Compound 97, 1-((2R,5S)-4-((S)-6-chloro-7-(3,5-dimethyl-1H-indazol-4-yl)-2-(3-(dimethylamino)azetidin-1-yl)-8-fluoroquinazolin-4-yl)-2,5-dimethylpiperazin-1-yl)prop-2-en-1-one]	+ (+ indicates binding activity greater than 0% and up to 50%)
C=CC(=O)N1C[C@H](C)N(c2nc(N3CC(N(C)C)C3)nc3c(F)c(-c4c(C)ccc5[nH]nc(C)c45)c(Cl)cc23)C[C@H]1C (atropisomer, axis not shown) [Compound 98, 1-((2R,5S)-4-((R)-6-chloro-7-(3,5-dimethyl-1H-indazol-4-yl)-2-(3-(dimethylamino)azetidin-1-yl)-8-fluoroquinazolin-4-yl)-2,5-dimethylpiperazin-1-yl)prop-2-en-1-one]	+++ (+++ indicates binding activity greater than 80%)
C=CC(=O)N1CCN(c2nc(N3CC(N(C)C)C3)nc3c(F)c(-c4c(C)ccc5[nH]nc(C6CC6)c45)c(Cl)cc23)C[C@H]1C (atropisomer, axis not shown) [Compound 101, 1-((R)-4-((S)-6-chloro-7-(3-cyclopropyl-5-methyl-1H-indazol-4-yl)-2-(3-(dimethylamino)azetidin-1-yl)-8-fluoroquinazolin-4-yl)-2-methylpiperazin-1-yl)prop-2-en-1-one]	+ (+ indicates binding activity greater than 0% and up to 50%)
C=CC(=O)N1CCN(c2nc(N3CC(N(C)C)C3)nc3c(F)c(-c4c(C)ccc5[nH]nc(C6CC6)c45)c(Cl)cc23)C[C@H]1C (atropisomer, axis not shown) [Compound 102, 1-((R)-4-((R)-6-chloro-7-(3-cyclopropyl-5-methyl-1H-indazol-4-yl)-2-(3-(dimethylamino)azetidin-1-yl)-8-fluoroquinazolin-4-yl)-2-methylpiperazin-1-yl)prop-2-en-1-one]	+++ (+++ indicates binding activity greater than 80%)
C=CC(=O)N1CCN(c2nc(N3CC(N(C)C)C3)nc3c(F)c(-c4c(C)ccc5[nH]nc(C6CC6)c45)c(Cl)cc23)CC1 (atropisomer, axis not shown) [Compound 103, (S)-1-(4-(6-chloro-7-(3-cyclopropyl-5-methyl-1H-indazol-4-yl)-2-(3-(dimethylamino)azetidin-1-yl)-8-fluoroquinazolin-4-yl)piperazin-1-yl)prop-2-en-1-one]	+ (+ indicates binding activity greater than 0% and up to 50%)
C=CC(=O)N1CCN(c2nc(N3CC(N(C)C)C3)nc3c(F)c(-c4c(C)ccc5[nH]nc(C6CC6)c45)c(Cl)cc23)CC1 (atropisomer, axis not shown) [Compound 104, (R)-1-(4-(6-chloro-7-(3-cyclopropyl-5-methyl-1H-indazol-4-yl)-2-(3-(dimethylamino)azetidin-1-yl)-8-fluoroquinazolin-4-yl)piperazin-1-yl)prop-2-en-1-one]	+++ (+++ indicates binding activity greater than 80%)
C=CC(=O)N1C[C@H](C)N(c2nc(N3CC(N(C)C)C3)nc3c(F)c(-c4c(C)ccc5cn(C)nc45)c(Cl)cc23)C[C@H]1C (atropisomer, axis not shown) [Compound 105, 1-((2R,5S)-4-((R)-6-chloro-7-(2,6-dimethyl-2H-indazol-7-yl)-2-(3-(dimethylamino)azetidin-1-yl)-8-fluoroquinazolin-4-yl)-2,5-dimethylpiperazin-1-yl)prop-2-en-1-one]	++ (++ indicates binding activity from 50 to 80%)
C=CC(=O)N1C[C@H](C)N(c2nc(NC3CCN(C4CC4)CC3)nc3c(F)c(-c4c(C)ccc5[nH]nc(C6CC6)c45)c(Cl)cc23)C[C@H]1C (atropisomer, axis not shown) [Compound 110, 1-((2R,5S)-4-((S)-6-chloro-7-(3-cyclopropyl-5-methyl-1H-indazol-4-yl)-2-(1-cyclopropylpiperidin-4-ylamino)-8-fluoroquinazolin-4-yl)-2,5-dimethylpiperazin-1-yl)prop-2-en-1-one]	+ (+ indicates binding activity greater than 0% and up to 50%)
C=CC(=O)N1C[C@H](C)N(c2nc(NC3CCN(C4CC4)CC3)nc3c(F)c(-c4c(C)ccc5[nH]nc(C6CC6)c45)c(Cl)cc23)C[C@H]1C (atropisomer, axis not shown) [Compound 111, 1-((2R,5S)-4-((R)-6-chloro-7-(3-cyclopropyl-5-methyl-1H-indazol-4-yl)-2-(1-cyclopropylpiperidin-4-ylamino)-8-fluoroquinazolin-4-yl)-2,5-dimethylpiperazin-1-yl)prop-2-en-1-one]	++ (++ indicates binding activity from 50 to 80%)
C=CC(=O)N1C[C@H](C)N(c2nc(OCCN3CCOCC3)nc3c(F)c(-c4c(C)ccc5[nH]nc(C6CC6)c45)c(Cl)cc23)C[C@H]1C (atropisomer, axis not shown) [Compound 112, 1-((2R,5S)-4-((S)-6-chloro-7-(3-cyclopropyl-5-methyl-1H-indazol-4-yl)-8-fluoro-2-(2-morpholinoethoxy)quina-zolin-4-yl)-2,5-dimethylpiperazin-1-yl)prop-2-en-1-one]	+ (+ indicates binding activity greater than 0% and up to 50%)
